# In US20110070213A1, “DERMAL COMPOSITIONS CONTAINING COENZYME Q AS THE ACTIVE INGREDIENT” (KANEKA CORPORATION, priority 2000, published 2011):
# Columns and labels:
# incision wound = assay: Incised wound healing test in rats; format: in vivo, SD rats; settings: 1% ointment, 0.2 g/day for 4 days; four days after incision
# From the text: SD rats (male, 12-week-old) were clipped of hairs and divided into groups of 10 animals to make the mean body weights of the groups roughly the same, and subjected to the test. Each animal was given an incision wound along the median line under diethyl ether anesthesia. The incision wound was stapled at three sites using Michel's clips, and a 1% oxidized coenzyme Q10 ointment or a 1% reduced coenzyme Q10 ointment was applied at a dose of 0.2 g/day for 4 days. Two control groups, namely a nontreated group and an ointment base group treated with the same dose of the ointment base, were used. Three days after incision, the Michel's clips were removed and, four days after incision, each animal was euthanized by overanesthesia with diethyl ether, the skin around the incision was peeled off, and skin sections were prepared. The skin sections were measured for tension on a tensile tester.
# [1] = Percutaneous absorption test (coenzyme Q10 in skin after dermal application); format: in vivo, hairless rats; settings: for Coenzyme Q10 concentration in skin / Reduced coenzyme Q10 concentration in skin: mean ± SD
# Experimental: The test sample 1 and comparative sample 1 were used as test substances. The test was carried out using male hairless rats (weighing 250 to 300 g) fed under well-fed conditions. A 0.1-g portion of the test sample 1, comparative sample 1, or PEG 1500 as a control was applied to an area of 3 cm square on the back of each hairless rat lightly anesthetized with ether. Three hours, 8 hours or 24 hours after application, the rat was sacrificed by euthanasia, the applied area was washed thoroughly, and a skin sample was taken. The skin sample was homogenized and extracted with propanol, the extract was concentrated using a solid phase column, and the amount of coenzyme Q10 in the skin was determined by high-performance liquid chromatography.
# Each of the skin samples mentioned above was homogenized and extracted with hexane, the extract was evaporated to dryness and dissolved in ethanol, and the proportion of reduced coenzyme Q10 in skin was determined by high-performance liquid chromatography with an electrochemical detector. Each numerical value means the mean±standard deviation.
# The test was carried out in the same manner as in Example 1 using the test samples 2, 3, 4 and 5 as well as the comparative sample 1 as test samples.
# In FIG. 1, the vertical axis denotes the total amount of coenzyme Q10 and the amount of reduced coenzyme Q10 in skin at 3 hours after application, and the horizontal axis denotes the content (% by weight) of reduced coenzyme Q10 relative to the total amount of coenzyme Q10 in the sample applied. Each bar indicates the mean value.
# [2] = as compared with 100% oxidized coenzyme Q10
structure (smiles),measurement,setting,value
"COC1=C(OC)C(=O)C(C/C=C(\C)CC/C=C(\C)CC/C=C(\C)CC/C=C(\C)CC/C=C(\C)CC/C=C(\C)CC/C=C(\C)CC/C=C(\C)CC/C=C(\C)CCC=C(C)C)=C(C)C1=O [Oxidized coenzyme Q10, oxidized coenzyme Q10, reference compound]","Skin repair (tension of skin sections on a tensile tester, in words)",incision wound,skin repair promoting effect
"COc1c(O)c(C)c(C/C=C(\C)CC/C=C(\C)CC/C=C(\C)CC/C=C(\C)CC/C=C(\C)CC/C=C(\C)CC/C=C(\C)CC/C=C(\C)CC/C=C(\C)CCC=C(C)C)c(O)c1OC [Reduced coenzyme Q10, reduced coenzyme Q10]","Coenzyme Q10 concentration in skin, relative value in parentheses (oxidized coenzyme Q10 = 100)",[1]; 3 hr,(165***)
same,"Reduced coenzyme Q10 concentration in skin, relative value in parentheses (oxidized coenzyme Q10 = 100)",[1]; 3 hr,(414***)
same,Coenzyme Q10 concentration in skin,[1]; 3 hr after application of 0.1 g PEG 1500 ointment (0.1 g coenzyme Q10 per 10 ml) to 3 cm square back skin,13.72 ± 0.70 µg/g
same,Reduced coenzyme Q10 concentration in skin,"[1]; 3 hr after application, HPLC with electrochemical detector",12.55 ± 0.51 µg/g
same,"Coenzyme Q10 concentration in skin, relative value in parentheses (oxidized coenzyme Q10 = 100)",[1]; 8 hr,(228*)
same,"Reduced coenzyme Q10 concentration in skin, relative value in parentheses (oxidized coenzyme Q10 = 100)",[1]; 8 hr,(317**)
same,Coenzyme Q10 concentration in skin,[1]; 8 hr after application of 0.1 g PEG 1500 ointment to back skin,17.96 ± 4.85 µg/g
same,Reduced coenzyme Q10 concentration in skin,[1]; 8 hr after application,15.84 ± 4.56 µg/g
same,"Coenzyme Q10 concentration in skin, relative value in parentheses (oxidized coenzyme Q10 = 100)",[1]; 24 hr,(206*)
same,"Reduced coenzyme Q10 concentration in skin, relative value in parentheses (oxidized coenzyme Q10 = 100)",[1]; 24 hr,(239*)
same,Coenzyme Q10 concentration in skin,[1]; 24 hr after application of 0.1 g PEG 1500 ointment to back skin,15.68 ± 3.95 µg/g
same,Reduced coenzyme Q10 concentration in skin,[1]; 24 hr after application,12.99 ± 4.81 µg/g
same,Increase of the amount of coenzyme Q10 in skin (in words),[1]; [2],very effective in increasing the amount of coenzyme Q10 in skin
same,Increase of the amount of reduced coenzyme Q10 in skin (in words),[1]; [2],very effective in increasing the amount of reduced coenzyme Q10 in skin
same,"Skin repair (tension of skin sections on a tensile tester, in words)",incision wound,skin repair promoting effect
